# Measured values published in article PMC7074965, “Discovery of Two Brominated Oxindole Alkaloids as Staphylococcal DNA Gyrase and Pyruvate Kinase Inhibitors via Inverse Virtual Screening” (Microorganisms, 2020).
# Target: T1, Topo IV from S. aureus (ParE) (Staphylococcus aureus, UniProt P0C1S7)
# T1 construct: purchased Inspiralis
# Assay: Topoisomerase IV inhibitory assay (Inspiralis kit)
# Assay type: biochemical
# Settings: staphylococcal Topo IV (ParE), mean of three experiments ± S.D.
# Procedure: DNA gyrase (type II topoisomerase) and topoisomerase IV (Topo IV; ParE) introduce negative supercoils into DNA, utilizing ATP hydrolysis as a source of energy. They are considered essential bacterial regulatory enzymes that are absent in eukaryotes. Gyrase subunit B (Gyr-B) and Topo IV inhibitory activities were determined using the Inspiralis assay kit (Inspiralis®, UK) on streptavidin-coated 96-well microtiter plates (Thermo Scientific, Germany) according to the manufacturer’s protocols. The assay measures the ability of the tested compounds to inhibit the ATPase activity of both Gyr-B and ParE subunits. Briefly, the plates were hydrated with buffer (20 mM Tris-HCl with pH 7.6, 0.01% w/v BSA, 0.05% v/v Tween 20, 137 mM NaCl) and the biotinylated oligonucleotide was then immobilized. […] The produced fluorescence was measured using a microplate reader (BioTek Synergy, excitation: 485 nm, emission: 535 nm, Germany). […] The PK inhibitory activity of the tested compounds was determined according to the previously reported method. […] The PK activity was measured in a continuous assay coupled to lactate dehydrogenase (LDH) in which the change in absorbance at 340 nm owing to the oxidation of NADH was measured by the microplate reader. […] IC50 values in both assays were determined using seven concentrations of tested compounds. […]
# T1 sequence (P0C1S7 whole entry): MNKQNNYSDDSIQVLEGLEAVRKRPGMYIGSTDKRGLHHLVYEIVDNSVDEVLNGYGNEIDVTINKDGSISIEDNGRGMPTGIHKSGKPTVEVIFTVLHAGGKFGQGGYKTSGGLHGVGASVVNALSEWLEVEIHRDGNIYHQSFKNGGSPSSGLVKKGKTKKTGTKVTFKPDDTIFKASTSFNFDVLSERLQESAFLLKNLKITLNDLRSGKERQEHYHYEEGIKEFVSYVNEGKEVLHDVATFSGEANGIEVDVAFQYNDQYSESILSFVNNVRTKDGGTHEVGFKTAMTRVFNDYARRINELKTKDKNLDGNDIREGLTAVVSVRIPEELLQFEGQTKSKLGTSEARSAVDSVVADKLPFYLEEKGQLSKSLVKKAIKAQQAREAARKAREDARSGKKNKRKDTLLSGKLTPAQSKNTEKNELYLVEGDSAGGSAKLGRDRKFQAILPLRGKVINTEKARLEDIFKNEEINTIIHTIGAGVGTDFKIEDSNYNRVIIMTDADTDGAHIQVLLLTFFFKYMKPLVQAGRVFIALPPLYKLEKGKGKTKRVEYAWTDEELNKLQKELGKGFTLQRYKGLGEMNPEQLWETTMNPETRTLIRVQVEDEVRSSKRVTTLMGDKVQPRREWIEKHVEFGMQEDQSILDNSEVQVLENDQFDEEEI
# T1 sequence (P0C1U9 whole entry partner): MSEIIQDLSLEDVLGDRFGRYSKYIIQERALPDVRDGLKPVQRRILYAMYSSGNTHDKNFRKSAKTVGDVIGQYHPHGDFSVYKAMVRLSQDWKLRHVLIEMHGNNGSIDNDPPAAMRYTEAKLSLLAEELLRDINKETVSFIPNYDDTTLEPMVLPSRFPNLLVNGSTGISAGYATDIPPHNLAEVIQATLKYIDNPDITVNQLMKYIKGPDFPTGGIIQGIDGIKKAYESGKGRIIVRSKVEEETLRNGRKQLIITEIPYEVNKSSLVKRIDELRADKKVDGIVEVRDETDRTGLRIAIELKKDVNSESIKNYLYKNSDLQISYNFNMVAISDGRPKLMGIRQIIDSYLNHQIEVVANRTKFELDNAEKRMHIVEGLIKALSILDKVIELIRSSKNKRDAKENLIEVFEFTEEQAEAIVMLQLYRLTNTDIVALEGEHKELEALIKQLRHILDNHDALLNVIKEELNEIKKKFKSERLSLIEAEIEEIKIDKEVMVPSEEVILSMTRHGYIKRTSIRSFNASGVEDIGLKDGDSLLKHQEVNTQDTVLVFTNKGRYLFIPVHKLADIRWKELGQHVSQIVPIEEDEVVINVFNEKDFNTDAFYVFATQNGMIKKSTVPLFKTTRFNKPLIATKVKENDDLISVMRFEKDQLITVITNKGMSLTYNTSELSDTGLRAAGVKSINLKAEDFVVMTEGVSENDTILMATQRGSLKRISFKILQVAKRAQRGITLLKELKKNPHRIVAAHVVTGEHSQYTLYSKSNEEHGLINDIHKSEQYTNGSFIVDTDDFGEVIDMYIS
compound,measurement,value
CO[C@@H]1[C@@H](OC(N)=O)[C@@H](O)[C@H](Oc2ccc3c(O)c(NC(=O)c4ccc(O)c(CC=C(C)C)c4)c(=O)oc3c2C)OC1(C)C [Novobiocin],IC50,220 ± 10 nM
